For experiment [1], the target named is T1, ^3 H-desmethoxyverapamil binding, partially-cleaned membranes of guinea pig heart (Cavia porcellus, UniProt O35505).
T1 construct: partially-cleaned membranes of guinea pig heart; from tissue; host or cells: guinea pig heart, partially-cleaned membranes
In words: ^3 H-Desmethoxyverapamil binding determinations (Test A). The settings on record: half-maximum inhibition of specific ^3 H-desmethoxyverapamil binding; 2.5 nM; 120 minutes at 37° C. As for the experimental part:
A. ^3 H-Desmethoxyverapamil binding determinations:
The determination is carried out on partially-cleaned membranes of guinea pig heart. […] The incubation lasts 120 minutes at 37° C. and is stopped by dilution with the incubation buffer; a filtration is subsequently carried out. The filter-bound radioactivity is measured with a scintillation counter. Specific binding (i.e. receptor-bound) is defined as the difference between total and unspecific-bound radioactivity. The unspecific binding is determined in the presence of an excess of non-radioactive verapamil (10 μM).
The activity (potency) of a compound in this test is defined by the IC50 value. The IC50 is the substance concentration (in mol/l) which produces a half-maximum inhibition of the specific ^3 H-desmethoxyverapamil binding. This value is extrapolated from a concentration-binding curve.

The subject of experiment [2] is Isolated, perfused guinea pig heart. In words: Isolated, perfused guinea pig heart according to Langendorff (Test B). The settings on record: Cavia porcellus, infusion, 10^-10 to 10^-6 M, pH 7.3, 37° C., read-out: CBF IC50. As to the method: B. Isolated, perfused guinea pig heart according to Langendorff: Guinea pigs weighing approximately 400 g are narcotized with Urethan (1 g/kg i.p.) and the heart is removed rapidly. […] A Miller microtip catheter pressure transducer (PC-350) is inserted in the left heart chamber in order to measure the left ventricular pressure. The total coronary artery flow is collected in a funnel and measured with an electro magnetic flow meter. All measurement parameters are recorded on a recording apparatus (Gould, Model 2800). The test begins after an adaptation of 45 minutes. Substances are infused with a velocity of 1% of the total coronary flow rate. A complete concentration-activity curve (10^-10 to 10^-6 M) is prepared for each substance.

The subject of another experiment is narcotized dog. The experiment is described as follows: Haemodynamic parameters in the narcotized dog (Test C). In kind it is in vivo. The settings on record: % maximum variation from initial value; for BP Δ %: blood pressure; for CBF Δ %: coronary blood flow; for HR Δ %: heart rate; for dp/dt Δ %: rate of increase in left ventricular pressure. As for the experimental part: C. […] The values are given as the % maximum variation from the initial value (Δ %) and the duration of this variation (t) per dosage administered. There is thus obtained not only an overall picture of the activity of the substance, but also an estimation as to the potential selectivity for a specific part of the circulatory system in the entire organism. After the administration of an anaesthetic, the dog is intubated and respired artificially. Blood pH, pC2 O , pO2 and haemoglobin are measured hourly with a blood-gas analyser. The blood pressure (systolic and diastolic) is measured with a probe in the aorta abdominalis. The heart freguency is recorded by means of a tachometer, which is disengaged from the pressure pulse. For the other measurements the heart must be firstly be opened in order that a probe can be inserted in the left ventricle (heart chamber) for the pressure measurements (dp/dt). The coronary blood flow is measured with a flowing probe in the left coronary artery (descendens).

Molecules are shown by their SMILES.

T1 sequence (O35505 whole entry): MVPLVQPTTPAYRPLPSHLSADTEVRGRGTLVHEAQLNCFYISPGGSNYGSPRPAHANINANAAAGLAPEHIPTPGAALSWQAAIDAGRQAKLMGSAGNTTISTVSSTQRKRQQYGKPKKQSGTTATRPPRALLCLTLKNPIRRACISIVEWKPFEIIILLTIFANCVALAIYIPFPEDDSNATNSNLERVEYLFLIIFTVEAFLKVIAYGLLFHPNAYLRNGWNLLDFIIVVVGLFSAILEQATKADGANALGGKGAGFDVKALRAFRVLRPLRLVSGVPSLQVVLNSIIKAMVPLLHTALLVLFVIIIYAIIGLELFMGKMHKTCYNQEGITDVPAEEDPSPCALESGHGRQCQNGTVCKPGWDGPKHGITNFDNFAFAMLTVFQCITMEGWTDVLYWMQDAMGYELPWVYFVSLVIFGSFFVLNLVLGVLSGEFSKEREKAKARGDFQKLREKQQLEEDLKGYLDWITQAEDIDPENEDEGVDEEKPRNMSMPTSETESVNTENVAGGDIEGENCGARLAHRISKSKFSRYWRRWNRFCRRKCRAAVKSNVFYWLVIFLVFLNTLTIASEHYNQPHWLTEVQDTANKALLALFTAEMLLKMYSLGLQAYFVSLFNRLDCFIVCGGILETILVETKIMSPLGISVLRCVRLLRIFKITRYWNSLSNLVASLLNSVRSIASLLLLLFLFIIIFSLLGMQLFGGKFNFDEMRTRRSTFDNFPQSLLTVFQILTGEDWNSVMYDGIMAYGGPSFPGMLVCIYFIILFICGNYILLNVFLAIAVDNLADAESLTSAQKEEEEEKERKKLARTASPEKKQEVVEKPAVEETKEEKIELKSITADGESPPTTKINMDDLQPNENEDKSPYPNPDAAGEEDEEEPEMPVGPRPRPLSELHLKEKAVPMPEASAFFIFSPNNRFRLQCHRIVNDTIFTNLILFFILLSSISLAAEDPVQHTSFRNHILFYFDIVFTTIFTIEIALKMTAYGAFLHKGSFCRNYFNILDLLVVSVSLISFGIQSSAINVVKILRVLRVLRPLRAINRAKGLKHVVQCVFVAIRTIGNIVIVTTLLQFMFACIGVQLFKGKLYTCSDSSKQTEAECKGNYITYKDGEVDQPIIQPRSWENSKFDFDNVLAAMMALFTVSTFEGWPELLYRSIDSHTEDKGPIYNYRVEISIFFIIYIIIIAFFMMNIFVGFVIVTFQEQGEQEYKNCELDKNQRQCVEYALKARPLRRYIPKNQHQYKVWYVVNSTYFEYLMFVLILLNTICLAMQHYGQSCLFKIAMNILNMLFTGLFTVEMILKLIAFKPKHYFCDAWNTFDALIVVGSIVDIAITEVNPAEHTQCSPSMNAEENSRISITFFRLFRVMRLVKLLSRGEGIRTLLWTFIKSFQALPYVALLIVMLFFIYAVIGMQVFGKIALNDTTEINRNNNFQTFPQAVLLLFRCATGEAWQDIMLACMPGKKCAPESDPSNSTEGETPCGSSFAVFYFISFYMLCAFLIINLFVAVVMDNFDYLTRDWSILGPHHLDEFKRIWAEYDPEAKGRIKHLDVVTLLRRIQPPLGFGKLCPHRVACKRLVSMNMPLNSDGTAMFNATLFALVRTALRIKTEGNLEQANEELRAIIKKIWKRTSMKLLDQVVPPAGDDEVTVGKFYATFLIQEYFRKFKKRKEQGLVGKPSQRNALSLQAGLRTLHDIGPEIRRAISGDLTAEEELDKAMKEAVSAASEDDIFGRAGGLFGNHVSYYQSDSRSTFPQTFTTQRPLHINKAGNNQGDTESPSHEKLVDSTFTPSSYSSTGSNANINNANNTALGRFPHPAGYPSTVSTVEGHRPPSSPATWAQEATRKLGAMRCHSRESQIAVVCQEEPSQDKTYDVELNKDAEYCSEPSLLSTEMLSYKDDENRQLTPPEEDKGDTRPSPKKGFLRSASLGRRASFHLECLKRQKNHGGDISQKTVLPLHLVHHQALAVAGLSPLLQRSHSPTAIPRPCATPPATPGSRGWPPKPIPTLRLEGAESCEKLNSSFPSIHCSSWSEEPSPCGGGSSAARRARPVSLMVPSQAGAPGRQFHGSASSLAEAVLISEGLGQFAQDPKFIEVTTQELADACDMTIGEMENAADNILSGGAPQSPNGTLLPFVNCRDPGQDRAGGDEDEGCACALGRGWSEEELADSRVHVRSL

Consider `CCCCNC(=O)O[C@]1(CCN(C)CCCCCc2nc3ccccc3n2C)CCc2cc(F)ccc2[C@@H]1C(C)C` [C, [1S,2S]-6-fluoro-1,2,3,4-tetrahydro-1-isopropyl-2-[2-[methyl-[5-(1-methyl-2-benzimidazolyl)pentyl]amino]ethyl]-2-naphthyl butylcarbamate], for which, in experiment [1], the IC50 (usually the concentration that inhibits the measured activity by half) amounted to 210 nM. For the same compound, the IC50 in experiment [2] worked out at 17 nM. Moreover, in the experiment on narcotized dog (0.3 mg/kg i.v.), the “BP Δ %” value is given as -16%, the “CBF Δ %” value is recorded as 62%, the “HR Δ %” value is recorded as -9% and the “dp/dt Δ %” value came to 15%.

Consider `COCC(=O)O[C@]1(CC[N+](C)([O-])CCCc2nc3ccccc3[nH]2)CCc2cc(F)ccc2[C@@H]1C(C)C` (stereo partly drawn) [E, [1S,2S]-2-[2-[[3-(2-benzimidazolyl)propyl]methyl-N-oxidoamino]ethyl]-6-fluoro-1,2,3,4-tetrahydro-1-isopropyl-2-naphthyl methoxyacetate], for which, in experiment [1], the IC50 came out at 1000 nM. The IC50 in experiment [2] is 10000 nM. In the experiment on narcotized dog (1 mg/kg i.v.), the “BP Δ %” value is on record as -8%, the “CBF Δ %” value is on record as 57%, the “HR Δ %” value is on record as 0% and the “dp/dt Δ %” value turned out to be 10%.

Consider `COCC(=O)O[C@]1(CCN(C)CCCc2nc(-c3ccccc3)c(-c3ccccc3)n2C)CCc2cc(F)ccc2[C@@H]1C(C)C` [G, [1S,2S]-6-fluoro-1,2,3,4-tetrahydro-1-isopropyl-2-[2-[[3-(1-methyl-4,5-diphenylimidazol-2-yl)propyl]methylamino]ethyl]-2-naphthyl methoxyacetate], for which, in experiment [1], the IC50 worked out at 150 nM. The IC50 in experiment [2] came to 1.8 nM. For the same compound, in the experiment on narcotized dog (0.3 mg/kg i.v.), the “BP Δ %” value is on record as -20%, the “CBF Δ %” value turned out to be 96%, the “HR Δ %” value is recorded as -15% and the “dp/dt Δ %” value was 11%.

In experiment [1], `CCCCCCCCCCCCn1c(CCCCCCCN(C)CC[C@@]2(OC(=O)COC)CCc3cc(F)ccc3[C@@H]2C(C)C)nc2ccccc21` [F, [1S,2S]-2-[2-[[7-(1-dodecyl-2-benzimidazolyl)heptyl]methylamino]ethyl]-6-fluoro-1,2,3,4-tetrahydro-1-isopropyl-2-naphthyl methoxyacetate] had an IC50 of 34 nM. Besides, the IC50 in experiment [2] was 28 nM. Moreover, in the experiment on narcotized dog (0.3 mg/kg i.v.), the “BP Δ %” value was -3%, the “CBF Δ %” value amounted to 46%, the “HR Δ %” value is given as -2% and the “dp/dt Δ %” value is 4%.

In experiment [1], `COCC(=O)O[C@]1(CCN(C)CCCc2nc3ccccc3[nH]2)CCc2cc(F)ccc2[C@@H]1C(C)C` [A, [1S,2S]-2-[2-[[3-(2-benzimidazolyl)propyl]methylamino]ethyl]-6-fluoro-1,2,3,4-tetrahydro-1-isopropyl-2-naphthyl methoxyacetate] returned an IC50 of 130 nM. The IC50 in experiment [2] was 47 nM. Also, in the experiment on narcotized dog (0.3 mg/kg i.v.), the “BP Δ %” value is -22%, the “CBF Δ %” value turned out to be 86%, the “HR Δ %” value is recorded as -7% and the “dp/dt Δ %” value amounted to 25%.

Regarding `COCC(=O)O[C@]1(CCN(C)CCCCCCn2c(=O)[nH]c3ccccc32)CCc2cc(F)ccc2[C@@H]1C(C)C` [D, [1S,2S]-6-fluoro-1,2,3,4-tetrahydro-1-isopropyl-2-[2-[methyl-[6-(2-oxo-1-benzimidazolinyl)hexyl]amino]ethyl]-2-naphthyl methoxyacetate], in experiment [1], the 50% inhibitory concentration (IC50) stood at 32 nM. In addition, the IC50 in experiment [2] turned out to be 1.1 nM. In addition, in the experiment on narcotized dog (0.03 mg/kg i.v.), the “BP Δ %” value was -21%, the “CBF Δ %” value is 22%, the “HR Δ %” value is reported as -25% and the “dp/dt Δ %” value was 6%.

In experiment [1], `COCC(=O)O[C@]1(CCN(C)Cc2ccc(Cc3nc4ccccc4[nH]3)cc2)CCc2cc(F)ccc2[C@@H]1C(C)C` [I, [1S,2S]-6-fluoro-1,2,3,4-tetrahydro-1-isopropyl-2-[2-[[4-[(2-benzimidazolyl)methyl]benzyl]methylamino]ethyl]-2-naphthyl methoxyacetate] had a 50% inhibitory concentration (IC50) of 100 nM. In experiment [2], the concentration for half-maximal inhibition (IC50) was determined as 22 nM. In the experiment on narcotized dog (0.3 mg/kg i.v.), the “BP Δ %” value was -14%, the “CBF Δ %” value is given as 82%, the “HR Δ %” value is reported as -9% and the “dp/dt Δ %” value amounted to 18%.

`COCC(=O)O[C@]1(CCN(C)CCCCCc2nc3ccccc3s2)CCc2cc(F)ccc2[C@@H]1C(C)C` [H, [1S,2S]-2-[2-[[5-(2-benzthiazolyl)pentyl]methylamino]ethyl]-6-fluoro-1,2,3,4-tetrahydro-1-isopropyl-2-naphthyl methoxyacetate]: in experiment [1], the IC50 was 28 nM. For the same compound, the IC50 in experiment [2] is 2.4 nM. Besides, in the experiment with narcotized dog (0.3 mg/kg i.v.), the “BP Δ %” value is on record as -28%, the “CBF Δ %” value is given as 146%, the “HR Δ %” value is reported as -41% and the “dp/dt Δ %” value came out at 25%.

Compound `CC(C)[C@H]1c2ccc(F)cc2CC[C@]1(O)CCN(C)CCCCCCCc1nc2ccccc2[nH]1` [B, [1S,2S]-2-[2-[[7-(2-benzimidazolyl)heptyl]methylamino]ethyl]-6-fluoro-1,2,3,4-tetrahydro-1-isopropyl-2-naphthalenol] gave an IC50 in experiment [1] of 630 nM. Besides, the IC50 in experiment [2] came to 50 nM. In the experiment on narcotized dog (0.3 mg/kg i.v.), the “BP Δ %” value is -6%, the “CBF Δ %” value is given as 36%, the “HR Δ %” value came out at 0% and the “dp/dt Δ %” value is 8%.

For the origin of these results see patent US4808605A, “Tetrahydronaphthalene derivatives as calcium antagonists” (Hoffmann-La Roche Inc., priority 1986, dated 1989).
